US20230391760A1, “HETEROCYCLIC GLP-1 AGONISTS” (Gasherbrum Bio, Inc., priority 2020, published 2023)

biological target: GLP-1 Receptor (Homo sapiens, UniProt P43220); test: GLP-1R agonist cAMP stimulation assay (HEK293/GLP1R/CRE-LUC cells, cAMP dynamic 2 Kit); type: cell-based; settings: HEK293/CRE-Luc cell line stably expressing the GLP-1 Receptor, 30 min at 37° C.
Protocol: Activation of GLP-1 receptor is known to stimulate cyclic AMP (cAMP) production in cells which indicates primary coupling to the Gαs subunit of the G protein heterotrimeric complex. […] To optimize functional activity directed toward Gαs coupling, a HEK293/CRE-Luc cell line developed by HDB stably expressing the GLP-1 Receptor was used. 200×concentration of compound working solutions were prepared (Agilent Technologies Bravo) with 1/2 log serial dilution in 384-well Echo LDV plate (Labcyte, Cat #LP-0200). 50 nL/well 200× concentration of compound working solutions were moved to 384-well white low volume plate (Greiner,Cat #784075) using Labcyte ECHO550. 1×10^5 cells/mL HEK293/GLP1R/CRE-LUC(HD Biosciences) cell suspensions prepared with assay buffer[DPBS containing 0.5 mM IBMX(Sigma, Cat #15879) and 0.1% BSA (GENVIEW, Cat #FA016-100 g)], 10 uL cell suspensions were added to each well of previous generated assay plate which already contains 50 nl compound at 200×concentration using ThermoFisher Multidrop Combi (1000 cells/well). Seal the plate and incubate at 37° C. with 5% CO2 for 30 min. After incubation the cAMP assay signal was generated using cAMP dynamic 2 Kit (Cisbio). 5 μL cAMP-d2 working solution was added to each well, followed with 5 μL Anti-cAMP antibody-cryptate working solution added to each well using ThermoFisher Multidrop Combi. Incubate at room temperature for 1 hour protected from light.

Chain of GLP-1 Receptor (P43220 24-463, species assumed): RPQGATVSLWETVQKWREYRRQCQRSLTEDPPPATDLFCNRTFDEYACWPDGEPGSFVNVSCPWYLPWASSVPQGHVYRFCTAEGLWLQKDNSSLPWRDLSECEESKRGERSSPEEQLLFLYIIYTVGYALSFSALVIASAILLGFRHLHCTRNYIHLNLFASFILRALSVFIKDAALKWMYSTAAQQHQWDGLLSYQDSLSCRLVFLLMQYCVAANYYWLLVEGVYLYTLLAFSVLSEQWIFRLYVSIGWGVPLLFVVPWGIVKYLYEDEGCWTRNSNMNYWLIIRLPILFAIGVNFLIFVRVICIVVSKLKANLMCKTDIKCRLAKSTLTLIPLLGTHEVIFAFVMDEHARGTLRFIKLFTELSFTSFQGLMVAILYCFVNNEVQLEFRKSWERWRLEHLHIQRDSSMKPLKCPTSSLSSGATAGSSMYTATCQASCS

Compound | EC50 [nM]
C[C@]1(c2ccc(Cl)cc2F)Oc2cccc(C3CCN(Cc4nc5cc(-c6noc(=O)[nH]6)ncc5n4CC4(C#N)CC4)CC3)c2O1 [Compound 346a, 1-{[2-({4-[(2S)-2-(4-chloro-2-fluorophenyl)-2-methyl-2H-1,3-benzodioxol-4-yl]piperidin-1-yl}methyl)-6-(5-oxo-4,5-dihydro-1,2,4-oxadiazol-3-yl)-3H-imidazo[4,5-c]pyridin-3-yl]methyl}cyclopropane-1-carbonitrile] | 0.015
CC(=O)Nc1ccc2c(c1)nc(CN1CC=C(c3cccc(OCc4ccc(Cl)cc4F)n3)CC1)n2C[C@@H]1CCO1 [Compound 135a, N-{2-[(4-{6-[(4-chloro-2-fluorophenyl)methoxy]pyridin-2-yl}-1,2,3,6-tetrahydropyridin-1-yl)methyl]-1-{[(2S)-oxetan-2-yl]methyl}-1H-1,3-benzodiazol-5-yl}acetamide] | 0.64
N#Cc1ccc(COc2nccc(C3CCN(Cc4nc5cc(-c6nnc(C(F)(F)F)[nH]6)ncc5n4C[C@@H]4CCO4)CC3)n2)c(F)c1 [Compound 507a, 3-fluoro-4-{[(4-{1-[(3-{[(2S)-oxetan-2-yl]methyl}-6-[5-(trifluoromethyl)-4H-1,2,4-triazol-3-yl]-3H-imidazo[4,5-c]pyridin-2-yl)methyl]piperidin-4-yl}pyrimidin-2-yl)oxy]methyl}benzonitrile] | 0.068
C[C@]1(c2ccc(Cl)cc2F)Oc2cccc(C3CCN(Cc4nc5cc(-c6nnc(C(F)(F)F)[nH]6)nnc5n4C[C@@H]4CCO4)CC3)c2O1 [Compound 359a, 4-[(2S)-2-(4-chloro-2-fluorophenyl)-2-methyl-2H-1,3-benzodioxol-4-yl]-1-[(7-{[(2S)-oxetan-2-yl]methyl}-3-[5-(trifluoromethyl)-4H-1,2,4-triazol-3-yl]-7H-imidazo[4,5-c]pyridazin-6-yl)methyl]piperidine] | 0.014
Fc1cc(Cl)ccc1C1COc2cccc(C3CCN(Cc4nc5cc(-c6nnc(C(F)(F)F)[nH]6)ncc5n4C[C@@H]4CCO4)CC3)c2O1 (stereo partly drawn) [Compound 457a, 4-[3-(4-chloro-2-fluorophenyl)-2,3-dihydro-1,4-benzodioxin-5-yl]-1-[(3-{[(2S)-oxetan-2-yl]methyl}-6-[5-(trifluoromethyl)-4H-1,2,4-triazol-3-yl]-3H-imidazo[4,5-c]pyridin-2-yl)methyl]piperidine] | 0.12
C[C@H]1CN(c2ncc(F)c(OCc3ccc(Cl)cc3F)n2)CCN1Cc1nc2cc(-c3nnc(C(F)(F)F)[nH]3)ncc2n1C[C@@H]1CCO1 [Compound 489a, 4-[(4-chloro-2-fluorophenyl)methoxy]-5-fluoro-2-[(3S)-3-methyl-4-[(3-{[(2S)-oxetan-2-yl]methyl}-6-[5-(trifluoromethyl)-4H-1,2,4-triazol-3-yl]-3H-imidazo[4,5-c]pyridin-2-yl)methyl]piperazin-1-yl]pyrimidine] | 0.087
Fc1cc(Cl)ccc1COc1cccc(N2CCN(Cc3nc4cc(-c5nnc(C(F)(F)F)[nH]5)nnc4n3C[C@@H]3CCO3)CC2)n1 [Compound 492a, 1-{6-[(4-chloro-2-fluorophenyl)methoxy]pyridin-2-yl}-4-[(7-{[(2S)-oxetan-2-yl]methyl}-3-[5-(trifluoromethyl)-4H-1,2,4-triazol-3-yl]-7H-imidazo[4,5-c]pyridazin-6-yl)methyl]piperazine] | 0.084
Fc1cc(Cl)ccc1COc1cccc(C2CCN(Cc3nc4cc(-c5nnc(C(F)(F)F)[nH]5)ncc4n3C[C@@H]3CCO3)CC2F)n1 (stereo partly drawn) [Compound 499a, 2-[(4-chloro-2-fluorophenyl)methoxy]-6-[(3,4-trans)-3-fluoro-1-[(3-{[(2S)-oxetan-2-yl]methyl}-6-[5-(trifluoromethyl)-4H-1,2,4-triazol-3-yl]-3H-imidazo[4,5-c]pyridin-2-yl)methyl]piperidin-4-yl]pyridine] | 0.04
O=C(Nc1ccc2c(c1)nc(CN1CCC(c3cccc(OCc4ccc(Cl)cc4F)n3)CC1)n2C[C@@H]1CCO1)C1CCCOC1 (single isomer, unassigned) [Compound 154c] | 1.5
O=C1OCCN1c1ccc2c(c1)nc(CN1CCC(c3cccc(OCc4ccc(Cl)cc4F)n3)CC1)n2C[C@@H]1CCO1 [Compound 120a, 3-{2-[(4-{6-[(4-chloro-2-fluorophenyl)methoxy]pyridin-2-yl}piperidin-1-yl)methyl]-1-{[(2S)-oxetan-2-yl]methyl}-1H-1,3-benzodiazol-5-yl}-1,3-oxazolidin-2-one] | 4
CC(=O)Nc1ccc2c(c1)nc(CN1CCC(c3cccc(OCc4ccc(Cl)cc4F)n3)CC1)n2C[C@@H]1CCO1 [Compound 101a, (S)—N-(2-((4-(6-((4-chloro-2-fluorobenzyl)oxy)pyridin-2-yl)piperidin-1-yl)methyl)-1-(oxetan-2-ylmethyl)-1H-benzo[d]imidazol-5-yl)acetamide] | 1.09
FC(F)(F)c1nnc(-c2cc3nc(CN4CCC(c5cccc6c5OC[C@@H](c5ccc(Cl)cc5)O6)CC4)n(C[C@@H]4CCO4)c3cn2)[nH]1 [Compound 423a, 4-[(2R)-2-(4-chlorophenyl)-2,3-dihydro-1,4-benzodioxin-5-yl]-1-[(3-{[(2S)-oxetan-2-yl]methyl}-6-[5-(trifluoromethyl)-4H-1,2,4-triazol-3-yl]-3H-imidazo[4,5-c]pyridin-2-yl)methyl]piperidine] | 0.13
CC1(C)CCC(C(=O)Nc2ccc3c(c2)nc(CN2CCC(c4cccc(OCc5ccc(Cl)cc5F)n4)CC2)n3C[C@@H]2CCO2)CO1 (stereo partly drawn) [Compound 192a, N-{2-[(4-{6-[(4-chloro-2-fluorophenyl)methoxy]pyridin-2-yl}piperidin-1-yl)methyl]-1-{[(2S)-oxetan-2-yl]methyl}-1H-1,3-benzodiazol-5-yl}-6,6-dimethyloxane-3-carboxamide] | 6.2
O=C(O)Cc1ccc2c(c1)nc(CN1CC=C(c3cccc(OCc4ccc(Cl)cc4F)n3)CC1)n2C[C@@H]1CCO1 [Compound 112a, (S)-2-(2-((6-((4-chloro-2-fluorobenzyl)oxy)-3′,6′-dihydro-[2,4′-bipyridin]-1′(2′H)-yl)methyl)-1-(oxetan-2-ylmethyl)-1H-benzo[d]imidazol-5-yl)acetic acid] | 6.35
C[C@]1(c2ccc(Cl)cc2F)Oc2cccc(C3CCN(Cc4nc5cc(-c6nnc(C(F)(F)F)[nH]6)ncc5n4CC4(C#N)CC4)CC3)c2O1 [Compound 345a, 1-{[2-({4-[(2S)-2-(4-chloro-2-fluorophenyl)-2-methyl-2H-1,3-benzodioxol-4-yl]piperidin-1-yl}methyl)-6-[5-(trifluoromethyl)-4H-1,2,4-triazol-3-yl]-3H-imidazo[4,5-c]pyridin-3-yl]methyl}cyclopropane-1-carbonitrile] | 0.014
Cc1cnc(C(=O)Nc2ccc3c(c2)nc(CN2CCC(c4cccc(OCc5ccc(Cl)cc5F)n4)CC2)n3C[C@@H]2CCO2)c(C)c1 [Compound 184a, N-{2-[(4-{6-[(4-chloro-2-fluorophenyl)methoxy]pyridin-2-yl}piperidin-1-yl)methyl]-1-{[(2S)-oxetan-2-yl]methyl}-1H-1,3-benzodiazol-5-yl}-3,5-dimethylpyridine-2-carboxamide] | 2
Fc1cc(Cl)ccc1COc1nc(C2CCN(Cc3nc4cc(-c5nnc(C(F)(F)F)[nH]5)nnc4n3C[C@@H]3CCO3)CC2)ccc1F [Compound 488a, 2-[(4-chloro-2-fluorophenyl)methoxy]-3-fluoro-6-{1-[(7-{[(2S)-oxetan-2-yl]methyl}-3-[5-(trifluoromethyl)-4H-1,2,4-triazol-3-yl]-7H-imidazo[4,5-c]pyridazin-6-yl)methyl]piperidin-4-yl}pyridine] | 0.054
C[C@]1(c2ccc(Cl)cc2F)Oc2cccc(C3CCN(Cc4nc5cc(-c6nnn[nH]6)ncc5n4C[C@@H]4CCO4)CC3)c2O1 [Compound 417a, 4-[(2S)-2-(4-chloro-2-fluorophenyl)-2-methyl-2H-1,3-benzodioxol-4-yl]-1-[(3-{[(2S)-oxetan-2-yl]methyl}-6-(1H-1,2,3,4-tetrazol-5-yl)-3H-imidazo[4,5-c]pyridin-2-yl)methyl]piperidine] | 0.0065
Fc1cc(Cl)ccc1COc1cccc(C2=CCN(Cc3nc4cc(-c5nnc(C(F)(F)F)[nH]5)cnc4n3C[C@@H]3CCO3)CC2)c1 [Compound 319a, 4-{3-[(4-chloro-2-fluorophenyl)methoxy]phenyl}-1-[(3-{[(2S)-oxetan-2-yl]methyl}-6-[5-(trifluoromethyl)-4H-1,2,4-triazol-3-yl]-3H-imidazo[4,5-b]pyridin-2-yl)methyl]-1,2,3,6-tetrahydropyridine] | 0.36
FC(F)(F)c1nnc(-c2cnc3c(c2)nc(CN2CCC(c4cccc5c4OC[C@@H](c4ccc(Cl)cc4)O5)CC2)n3C[C@@H]2CCO2)[nH]1 [Compound 408a, 4-[(2R)-2-(4-chlorophenyl)-2,3-dihydro-1,4-benzodioxin-5-yl]-1-[(3-{[(2S)-oxetan-2-yl]methyl}-6-[5-(trifluoromethyl)-4H-1,2,4-triazol-3-yl]-3H-imidazo[4,5-b]pyridin-2-yl)methyl]piperidine] | 0.28
